# What was measured:
# Assay type in all cases: in vivo
# [1] = system: green foxtail (Setaria viridis L.); experiment: Test Example 1: foliar treatment, upland pot test, green foxtail; settings: 31 g/ha active ingredient, observed 17th to 25th day after application; for inhibition at 31 g/ha: Setaria viridis, read-out: Growth inhibition rate (%) Green foxtail
# [2] = system: crabgrass (Digitaria sanguinalis L.); experiment: Test Example 1: foliar treatment, upland pot test, crabgrass; settings: 31 g/ha active ingredient, observed 17th to 25th day after application; for inhibition at 31 g/ha: Digitaria sanguinalis, read-out: Growth inhibition rate (%) Crabgrass
# [3] = system: prickly sida (Sida spinosa L.); experiment: Test Example 1: foliar treatment, upland pot test, prickly sida; settings: 31 g/ha active ingredient, observed 17th to 25th day after application; for inhibition at 31 g/ha: Sida spinosa, read-out: Growth inhibition rate (%) Prickly sida
# [4] = system: barnyardgrass (Echinochloa crus-galli L.); experiment: Test Example 1: foliar treatment, upland pot test, barnyardgrass; settings: 31 g/ha active ingredient, observed 17th to 25th day after application; for inhibition at 31 g/ha: Echinochloa crus-galli, read-out: Growth inhibition rate (%) Barnyardgrass
# [5] = system: corn (Zea mays L.); experiment: Test Example 1: foliar treatment, upland pot test, corn; settings: 31 g/ha active ingredient, observed 17th to 25th day after application; for inhibition at 31 g/ha: Zea mays, read-out: Growth inhibition rate (%) Corn
# [6] = system: wheat (Triticum spp.); experiment: Test Example 1: foliar treatment, upland pot test, wheat; settings: 31 g/ha active ingredient, observed 17th to 25th day after application; for inhibition at 31 g/ha: Triticum, read-out: Growth inhibition rate (%) Wheat
# How it was run: (§1)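 Upland soil pots, sown; foliar spray at pigweed cotyledon–2.0 leaf, velvetleaf 0.1–1.5 leaf, rice 1.0–3.0 leaf, wheat 1.7–3.4 leaf. WP/EC formulations, prescribed a.i. rate, 500 L/ha spray volume + 0.1 vol % spreader. Visual % inhibition, d17–25.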
# [7] = system: redroot pigweed (Amaranthus retroflexus L.); experiment: Test Example 1: foliar treatment, upland pot test, redroot pigweed; settings: 31 g/ha active ingredient, observed 17th to 25th day after application; for inhibition at 31 g/ha: Amaranthus retroflexus, read-out: Growth inhibition rate (%) Redroot pigweed
# How it was run: as §1
# [8] = system: crabgrass (Digitaria sanquinalis L.); experiment: Test Example 2: soil application on the day after sowing, crabgrass; settings: 250 g/ha active ingredient, observed 19th to 28th day after application; for inhibition at 250 g/ha: Digitaria, read-out: Growth inhibition rate (%) Crabgrass
# How it was run: (§2)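 Herbicidal activity is scored on a 0–100% visual scale of growth inhibition 19–28 d after treatment. The active ingredient, weighed to prescribed doses, is applied as a diluted formulation (500 L water/ha) to soil one day post-sowing.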
# [9] = system: velvetleaf (Abutilon theophrasti MEDIC.); experiment: Test Example 1: foliar treatment, upland pot test, velvetleaf; settings: 31 g/ha active ingredient, observed 17th to 25th day after application; for inhibition at 31 g/ha: Abutilon theophrasti, read-out: Growth inhibition rate (%) Velvetleaf
# How it was run: as §1
# [10] = system: redroot pigweed (Amaranthus retroflexus L.); experiment: Test Example 2: soil application on the day after sowing, redroot pigweed; settings: 250 g/ha active ingredient, observed 19th to 28th day after application; for inhibition at 250 g/ha: Amaranthus retroflexus, read-out: Growth inhibition rate (%) Redroot pigweed
# How it was run: as §2
# [11] = system: rice (Oryza sativa L.); experiment: Test Example 1: foliar treatment, upland pot test, rice; settings: 31 g/ha active ingredient, observed 17th to 25th day after application; for inhibition at 31 g/ha: Oryza sativa, read-out: Growth inhibition rate (%) Rice
# How it was run: as §1
# [12] = system: corn (Zea mays L.); experiment: Test Example 3: foliar treatment at later leaf stage, corn; settings: 4.0 to 4.3 leaf stage, MSO Concentrate 0.5 vol %, 300 L/ha
# From the text: (§3) Upland field soil was put into a 1/1,000,000 hectare pot, and seeds of various plants were sown. When the respective plants reached predetermined leaf stage ((1) green foxtail (Setaria viridis L.): 4.0 to 4.5 leaf stage, (2) guineagrass (Panicum maximum Jacq.): 3.5 to 4.3 leaf stage, and (3) corn (Zea mays L.): 4.0 to 4.3 leaf stage, wettable powders or emulsifiable concentrates of compounds of the above formula (I), prepared in accordance with a conventional preparation method, were weighed so that the active ingredients became the prescribed amounts, and diluted with water in an amount corresponding to 300 or 500 liter per 1 hectare (containing of an agricultural spreader (MSO concentrate, manufactured by Cognis Corporation or “KUSARINOH”, manufactured by NIHON NOHYAKU CO., LTD.). The spray solutions thus prepared were applied for foliar treatment by a small sprayer.
# (§4) On the 18th to 24th day after application, the state of growth of the respective plants was visually observed, and the herbicidal effect was evaluated by a growth inhibition rate (%) of 0 (equivalent to the non-treated area) to 100% (complete kill).
# [13] = system: guineagrass (Panicum maximum Jacq.); experiment: Test Example 3: foliar treatment at later leaf stage, guineagrass; settings: 3.5 to 4.3 leaf stage, KUSARINOH 0.1 vol %, 500 L/ha
# From the text: as §3, §4
# [14] = system: green foxtail (Setaria viridis L.); experiment: Test Example 3: foliar treatment at later leaf stage, green foxtail; settings: 4.0 to 4.5 leaf stage, MSO Concentrate 0.5 vol %, 300 L/ha
# From the text: as §3, §4
# [15] = system: velvetleaf (Abutilon theophrasti MEDIC.); experiment: Test Example 2: soil application on the day after sowing, velvetleaf; settings: 250 g/ha active ingredient, observed 19th to 28th day after application; for inhibition at 250 g/ha: Abutilon theophrasti, read-out: Growth inhibition rate (%) Velvetleaf
# How it was run: as §2
# [16] = system: soybean (Glycine max Merr.); experiment: Test Example 1: foliar treatment, upland pot test, soybean; settings: 31 g/ha active ingredient, observed 17th to 25th day after application; for inhibition at 31 g/ha: Glycine max, read-out: Growth inhibition rate (%) Soybean
# [17] = system: corn (Zea mays L.); experiment: Test Example 2: soil application on the day after sowing, corn; settings: 250 g/ha active ingredient, observed 19th to 28th day after application; for inhibition at 250 g/ha: Zea mays, read-out: Growth inhibition rate (%) Corn
# How it was run: as §2
# [18] = system: green foxtail (Setaria viridis L.); experiment: Test Example 2: soil application on the day after sowing, green foxtail; settings: 250 g/ha active ingredient, observed 19th to 28th day after application
# How it was run: as §2
# [19] = system: soybean (Glycine max Merr.); experiment: Test Example 2: soil application on the day after sowing, soybean; settings: 250 g/ha active ingredient, observed 19th to 28th day after application
# How it was run: as §2
# [20] = system: barnyardgrass (Echinochloa crus-galli L.); experiment: Test Example 2: soil application on the day after sowing, barnyardgrass; settings: 250 g/ha active ingredient, observed 19th to 28th day after application
# How it was run: as §2
# [21] = system: wheat (Triticum spp.); experiment: Test Example 2: soil application on the day after sowing, wheat; settings: 250 g/ha active ingredient, observed 19th to 28th day after application
# How it was run: as §2
# [22] = system: rice (Oryza sativa L.); experiment: Test Example 2: soil application on the day after sowing, rice; settings: 250 g/ha active ingredient, observed 19th to 28th day after application
# How it was run: as §2
# [23] = system: prickly sida (Sida spinosa L.); experiment: Test Example 2: soil application on the day after sowing, prickly sida; settings: 250 g/ha active ingredient, observed 19th to 28th day after application
# How it was run: as §2
compound,measurement,setting,value
"COCCOc1c(S(C)(=O)=O)ccc(C(=O)c2cnn(C)c2O)c1C [Compound No. 151, 5-hydroxy-1-methylpyrazol-4-yl 3-(2-methoxyethoxy)-2-methyl-4-(methylsulfonyl)phenyl ketone]",inhibition at 31 g/ha,[1],100%
same,inhibition at 31 g/ha,[2],100%
same,inhibition at 31 g/ha,[3],80%
same,inhibition at 31 g/ha,[4],100%
same,inhibition at 31 g/ha,[5],30%
same,inhibition at 31 g/ha,[6],10%
same,inhibition at 31 g/ha,[7],100%
same,inhibition at 250 g/ha,[8],100%
same,inhibition at 31 g/ha,[9],98%
same,inhibition at 250 g/ha,[10],100%
same,inhibition at 31 g/ha,[11],60%
same,inhibition at 120 g/ha,"[12]; Zea mays, read-out: Growth inhibition rate (%) (21st day after application) Corn",2%
same,inhibition at 31 g/ha,"[13]; Megathyrsus maximus, read-out: Growth inhibition rate (%) (18th day after application) Guineagrass",93%
same,inhibition at 7 g/ha,"[14]; Setaria viridis, 7 g/ha, read-out: Growth inhibition rate (%) (24th day after application) Green foxtail",97%
same,inhibition at 15 g/ha,"[14]; Setaria viridis, 15 g/ha, read-out: Growth inhibition rate (%) (24th day after application) Green foxtail",100%
same,inhibition at 250 g/ha,[15],70%
same,inhibition at 31 g/ha,[16],95%
same,inhibition at 250 g/ha,[17],0%
CCn1ncc(C(=O)c2ccc(S(C)(=O)=O)c(OCCOC)c2C)c1O [compound 131],Growth inhibition rate (%) Green foxtail,[1],100%
same,Growth inhibition rate (%) Crabgrass,[2],100%
same,Growth inhibition rate (%) Prickly sida,[3],70%
same,Growth inhibition rate (%) Barnyardgrass,[4],100%
same,Growth inhibition rate (%) Corn,[5],10%
same,Growth inhibition rate (%) Green foxtail,[18],100%
same,Growth inhibition rate (%) Wheat,[6],30%
same,Growth inhibition rate (%) Redroot pigweed,[7],100%
same,Growth inhibition rate (%) Crabgrass,[8],100%
same,Growth inhibition rate (%) Velvetleaf,[9],100%
same,Growth inhibition rate (%) Soybean,[19],40%
same,Growth inhibition rate (%) Redroot pigweed,[10],100%
same,Growth inhibition rate (%) Barnyardgrass,[20],100%
same,Growth inhibition rate (%) Wheat,[21],40%
same,Growth inhibition rate (%) Rice,[22],100%
same,Growth inhibition rate (%) Prickly sida,[23],30%
same,Growth inhibition rate (%) Rice,[11],70%
same,Growth inhibition rate (%) (21st day after application) Corn,[12]; 120 g/ha,0%
same,Growth inhibition rate (%) (18th day after application) Guineagrass,[13]; 31 g/ha,93%
same,Growth inhibition rate (%) (24th day after application) Green foxtail,[14]; 7 g/ha,98%
same,Growth inhibition rate (%) (24th day after application) Green foxtail,[14]; 15 g/ha,100%
same,Growth inhibition rate (%) Velvetleaf,[15],90%
same,Growth inhibition rate (%) Soybean,[16],100%
same,Growth inhibition rate (%) Corn,[17],30%
COCCOc1c(S(C)(=O)=O)ccc(C(=O)c2cnn(C(C)C)c2O)c1C [compound 258],Growth inhibition rate (%) Green foxtail,[1],100%
same,Growth inhibition rate (%) Crabgrass,[2],100%
same,Growth inhibition rate (%) Prickly sida,[3],50%
same,Growth inhibition rate (%) Barnyardgrass,[4],100%
same,Growth inhibition rate (%) Corn,[5],10%
same,Growth inhibition rate (%) Green foxtail,[18],100%
same,Growth inhibition rate (%) Wheat,[6],0%
same,Growth inhibition rate (%) Redroot pigweed,[7],95%
same,Growth inhibition rate (%) Crabgrass,[8],100%
same,Growth inhibition rate (%) Velvetleaf,[9],98%
same,Growth inhibition rate (%) Soybean,[19],0%
same,Growth inhibition rate (%) Redroot pigweed,[10],100%
same,Growth inhibition rate (%) Barnyardgrass,[20],100%
same,Growth inhibition rate (%) Wheat,[21],0%
same,Growth inhibition rate (%) Rice,[22],80%
same,Growth inhibition rate (%) Prickly sida,[23],40%
same,Growth inhibition rate (%) Rice,[11],95%
same,Growth inhibition rate (%) (24th day after application) Green foxtail,[14]; 7 g/ha,95%
same,Growth inhibition rate (%) (24th day after application) Green foxtail,[14]; 15 g/ha,100%
same,Growth inhibition rate (%) Velvetleaf,[15],100%
same,Growth inhibition rate (%) Soybean,[16],90%
same,Growth inhibition rate (%) Corn,[17],0%
CCOC(=O)c1c(S(C)(=O)=O)ccc(C(=O)c2cnn(CC)c2O)c1Cl [compound 153],inhibition at 31 g/ha,[1],60%
same,inhibition at 31 g/ha,[2],80%
same,inhibition at 31 g/ha,[3],70%
same,inhibition at 31 g/ha,[4],90%
same,inhibition at 31 g/ha,[5],0%
same,inhibition at 250 g/ha,"[18]; Setaria viridis, read-out: Growth inhibition rate (%) Green foxtail",100%
same,inhibition at 31 g/ha,[6],0%
same,inhibition at 31 g/ha,[7],90%
same,inhibition at 250 g/ha,[8],100%
same,inhibition at 31 g/ha,[9],70%
same,inhibition at 250 g/ha,"[19]; Glycine max, read-out: Growth inhibition rate (%) Soybean",0%
same,inhibition at 250 g/ha,[10],100%
same,inhibition at 250 g/ha,"[20]; Echinochloa crus-galli, read-out: Growth inhibition rate (%) Barnyardgrass",100%
same,inhibition at 250 g/ha,"[21]; Triticum, read-out: Growth inhibition rate (%) Wheat",10%
same,inhibition at 250 g/ha,"[22]; Oryza sativa, read-out: Growth inhibition rate (%) Rice",70%
same,inhibition at 250 g/ha,"[23]; Sida spinosa, read-out: Growth inhibition rate (%) Prickly sida",80%
same,inhibition at 31 g/ha,[11],40%
same,inhibition at 250 g/ha,[15],100%
same,inhibition at 31 g/ha,[16],70%
same,inhibition at 250 g/ha,[17],10%

# From US20100317528A1, “HERBICIDE CONTAINING BENZOYLPYRAZOLE COMPOUND” (ISHIHARA SANGYO KAISHA, LTD., priority 2006, published 2010)
